# Experimental data published in the supplement of paper PMC10733146.
# How the values were obtained:
# Experiment in all cases: viability relative to DMSO control (fraction); higher = less drug effect (more viable cells)
# Conditions in all cases: 48 h
# Palbociclib = compound: CC(=O)c1c(C)c2cnc(Nc3ccc(N4CCNCC4)cn3)nc2n(C2CCCC2)c1=O [Palbociclib]
# Summary of the method: (§1)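 Using 384-well plates with compounds already plated at five concentrations, one well per concentration, 4 × 10^4 primary mononuclear tumour cells were added per well. Cells were Ficoll-isolated from blood or bone marrow or came from processed lymph node, fresh or cryopreserved. They were kept for 48 h at 37 °C and 5% CO2 in RPMI-1640 supplemented with penicillin/streptomycin, L-glutamine and human serum, and viability was read as CellTiter-Glo luminescence relative to the median of 16 inner DMSO wells.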
# SGC 0946 = compound: CC(C)N(CCCNC(=O)Nc1ccc(C(C)(C)C)cc1)C[C@H]1O[C@@H](n2cc(Br)c3c(N)ncnc32)[C@H](O)[C@@H]1O [SGC 0946]
# Summary of the method: as §1
# Venetoclax = compound: CC1(C)CCC(CN2CCN(c3ccc(C(=O)NS(=O)(=O)c4ccc(NCC5CCOCC5)c([N+](=O)[O-])c4)c(Oc4cnc5[nH]ccc5c4)c3)CC2)=C(c2ccc(Cl)cc2)C1 [Venetoclax]
# Summary of the method: as §1
# Navitoclax = compound: CC1(C)CCC(c2ccc(Cl)cc2)=C(CN2CCN(c3ccc(C(=O)NS(=O)(=O)c4ccc(N[C@H](CCN5CCOCC5)CSc5ccccc5)c(S(=O)(=O)C(F)(F)F)c4)cc3)CC2)C1 [Navitoclax]
# Summary of the method: as §1
# EPZ-6438 = compound: CCN(c1cc(-c2ccc(CN3CCOCC3)cc2)cc(C(=O)NCc2c(C)cc(C)[nH]c2=O)c1C)C1CCOCC1 [EPZ-6438]
# Summary of the method: as §1
# CPI-169 = compound: CCS(=O)(=O)N1CCC([C@@H](C)n2c(C)c(C(=O)NCc3c(OC)cc(C)[nH]c3=O)c3ccccc32)CC1 [CPI-169]
# Summary of the method: as §1
# Roscovitine = compound: CC[C@H](CO)Nc1nc(NCc2ccccc2)c2ncn(C(C)C)c2n1 [Roscovitine]
# Summary of the method: as §1
# [1] = compound: CCc1ccc(/C=C2/SC(=S)NC2=O)cc1
# Summary of the method: as §1
# Etoposide = compound: COc1cc([C@@H]2c3cc4c(cc3[C@@H](O[C@@H]3O[C@@H]5CO[C@@H](C)O[C@H]5[C@H](O)[C@H]3O)[C@H]3COC(=O)[C@H]23)OCO4)cc(OC)c1O [Etoposide]
# Summary of the method: as §1
# Tofacitinib = compound: C[C@@H]1CCN(C(=O)CC#N)C[C@@H]1N(C)c1ncnc2[nH]ccc12 [Tofacitinib]
# Summary of the method: as §1
# Duvelisib = compound: C[C@H](Nc1ncnc2nc[nH]c12)c1cc2cccc(Cl)c2c(=O)n1-c1ccccc1 [Duvelisib]
# Summary of the method: as §1
# Selinexor = compound: O=C(/C=C\n1cnc(-c2cc(C(F)(F)F)cc(C(F)(F)F)c2)n1)NNc1cnccn1 [Selinexor]
# Summary of the method: as §1
# [2] = compound: O=C(Nc1ccc2[nH]nc(-c3ccncc3)c2c1)[C@@H]1CCN(CC(=O)N2CCN(c3ccc(-c4ncccn4)cc3)CC2)C1
# Summary of the method: as §1
# Thalidomide = compound: O=C1CCC(N2C(=O)c3ccccc3C2=O)C(=O)N1 [Thalidomide]
# Summary of the method: as §1
test system,measurement,setting,value
primary FL patient cells (S087),viability,Palbociclib; 0.024 µM,0.979
same,viability,Palbociclib; 0.12 µM,0.917
same,viability,Palbociclib; 0.6 µM,0.947
same,viability,Palbociclib; 3 µM,0.788
same,viability,Palbociclib; 15 µM,0.123
same,viability,SGC 0946; 0.024 µM,1.02
same,viability,SGC 0946; 0.12 µM,0.957
same,viability,SGC 0946; 0.6 µM,0.923
same,viability,SGC 0946; 3 µM,0.967
same,viability,SGC 0946; 15 µM,0.645
same,viability,Venetoclax; 0.00064 µM,1.01
same,viability,Venetoclax; 0.0032 µM,0.938
same,viability,Venetoclax; 0.016 µM,0.74
same,viability,Venetoclax; 0.08 µM,0.364
same,viability,Venetoclax; 0.4 µM,0.0932
same,viability,Navitoclax; 0.0032 µM,0.95
same,viability,Navitoclax; 0.016 µM,1.01
same,viability,Navitoclax; 0.08 µM,0.82
same,viability,Navitoclax; 0.4 µM,0.508
same,viability,Navitoclax; 2 µM,0.084
same,viability,EPZ-6438; 0.024 µM,1.02
same,viability,EPZ-6438; 0.12 µM,1.01
same,viability,EPZ-6438; 0.6 µM,1.03
same,viability,EPZ-6438; 3 µM,0.993
same,viability,EPZ-6438; 15 µM,0.93
same,viability,CPI-169; 0.024 µM,0.99
same,viability,CPI-169; 0.12 µM,1.01
same,viability,CPI-169; 0.6 µM,0.99
same,viability,CPI-169; 3 µM,1
same,viability,CPI-169; 15 µM,0.955
same,viability,Roscovitine; 0.032 µM,0.924
same,viability,Roscovitine; 0.16 µM,0.905
same,viability,Roscovitine; 0.8 µM,0.916
same,viability,Roscovitine; 4 µM,0.9
same,viability,Roscovitine; 20 µM,0.798
same,viability,[1]; 0.024 µM,0.862
same,viability,[1]; 0.12 µM,0.862
same,viability,[1]; 0.6 µM,0.99
same,viability,[1]; 3 µM,0.923
same,viability,[1]; 15 µM,0.943
same,viability,Etoposide; 0.032 µM,1.02
same,viability,Etoposide; 0.16 µM,0.974
same,viability,Etoposide; 0.8 µM,0.916
same,viability,Etoposide; 4 µM,0.981
same,viability,Etoposide; 20 µM,0.765
same,viability,Tofacitinib; 0.024 µM,0.972
same,viability,Tofacitinib; 0.12 µM,0.945
same,viability,Tofacitinib; 0.6 µM,0.978
same,viability,Tofacitinib; 3 µM,0.969
same,viability,Tofacitinib; 15 µM,1
same,viability,Duvelisib; 0.0016 µM,0.849
same,viability,Duvelisib; 0.008 µM,0.811
same,viability,Duvelisib; 0.04 µM,0.764
same,viability,Duvelisib; 0.2 µM,0.758
same,viability,Duvelisib; 1 µM,0.795
same,viability,Selinexor; 0.008 µM,0.903
same,viability,Selinexor; 0.04 µM,0.872
same,viability,Selinexor; 0.2 µM,0.724
same,viability,Selinexor; 1 µM,0.681
same,viability,Selinexor; 5 µM,0.685
same,viability,[2]; 0.008 µM,0.961
same,viability,[2]; 0.04 µM,0.903
same,viability,[2]; 0.2 µM,0.943
same,viability,[2]; 1 µM,0.886
same,viability,[2]; 5 µM,0.851
same,viability,Thalidomide; 0.032 µM,0.986
same,viability,Thalidomide; 0.16 µM,0.925
same,viability,Thalidomide; 0.8 µM,0.951
same,viability,Thalidomide; 4 µM,0.996
same,viability,Thalidomide; 20 µM,0.985
primary MCL patient cells (S041),viability,Palbociclib; 0.024 µM,0.933
same,viability,Palbociclib; 0.12 µM,0.948
same,viability,Palbociclib; 0.6 µM,0.9
same,viability,Palbociclib; 3 µM,0.738
same,viability,Palbociclib; 15 µM,0.439
same,viability,SGC 0946; 0.024 µM,0.938
same,viability,SGC 0946; 0.12 µM,0.965
same,viability,SGC 0946; 0.6 µM,0.897
same,viability,SGC 0946; 3 µM,0.854
same,viability,SGC 0946; 15 µM,0.605
same,viability,Venetoclax; 0.00064 µM,1.03
same,viability,Venetoclax; 0.0032 µM,0.866
same,viability,Venetoclax; 0.016 µM,0.384
same,viability,Venetoclax; 0.08 µM,0.0604
same,viability,Venetoclax; 0.4 µM,0.0328
same,viability,Navitoclax; 0.0032 µM,1
same,viability,Navitoclax; 0.016 µM,0.884
same,viability,Navitoclax; 0.08 µM,0.64
same,viability,Navitoclax; 0.4 µM,0.133
same,viability,Navitoclax; 2 µM,0.0285
same,viability,EPZ-6438; 0.024 µM,1.25
same,viability,EPZ-6438; 0.12 µM,1.16
same,viability,EPZ-6438; 0.6 µM,1.04
same,viability,EPZ-6438; 3 µM,1.11
same,viability,EPZ-6438; 15 µM,1
same,viability,CPI-169; 0.024 µM,1.01
same,viability,CPI-169; 0.12 µM,1.02
same,viability,CPI-169; 0.6 µM,0.988
same,viability,CPI-169; 3 µM,1.05
same,viability,CPI-169; 15 µM,1.08
same,viability,Roscovitine; 0.032 µM,0.99
same,viability,Roscovitine; 0.16 µM,0.965
same,viability,Roscovitine; 0.8 µM,1.07
same,viability,Roscovitine; 4 µM,0.995
same,viability,Roscovitine; 20 µM,0.593
same,viability,[1]; 0.024 µM,0.901
same,viability,[1]; 0.12 µM,0.905
same,viability,[1]; 0.6 µM,0.933
same,viability,[1]; 3 µM,0.907
same,viability,[1]; 15 µM,0.918
same,viability,Etoposide; 0.032 µM,1.04
same,viability,Etoposide; 0.16 µM,0.982
same,viability,Etoposide; 0.8 µM,0.968
same,viability,Etoposide; 4 µM,0.941
same,viability,Etoposide; 20 µM,0.733
same,viability,Tofacitinib; 0.024 µM,0.967
same,viability,Tofacitinib; 0.12 µM,0.967
same,viability,Tofacitinib; 0.6 µM,0.98
same,viability,Tofacitinib; 3 µM,1.05
same,viability,Tofacitinib; 15 µM,1.05
same,viability,Duvelisib; 0.0016 µM,0.89
same,viability,Duvelisib; 0.008 µM,0.872
same,viability,Duvelisib; 0.04 µM,0.857
same,viability,Duvelisib; 0.2 µM,0.855
same,viability,Duvelisib; 1 µM,0.838
same,viability,Selinexor; 0.008 µM,0.887
same,viability,Selinexor; 0.04 µM,0.809
same,viability,Selinexor; 0.2 µM,0.672
same,viability,Selinexor; 1 µM,0.42
same,viability,Selinexor; 5 µM,0.478
same,viability,[2]; 0.008 µM,0.979
same,viability,[2]; 0.04 µM,0.985
same,viability,[2]; 0.2 µM,0.959
same,viability,[2]; 1 µM,0.927
same,viability,[2]; 5 µM,0.862
same,viability,Thalidomide; 0.032 µM,0.959
same,viability,Thalidomide; 0.16 µM,0.925
same,viability,Thalidomide; 0.8 µM,0.959
same,viability,Thalidomide; 4 µM,0.956
same,viability,Thalidomide; 20 µM,1
